{"source": "ChEMBL document CHEMBL3808392", "about": "“Design, synthesis and biological evaluation of 5-fluorouracil-derived benzimidazoles as novel type of potential antimicrobial agents” (2016)", "key": {"[1]": {"system": "Aspergillus flavus", "experiment": "Antimicrobial activity against Aspergillus flavus ATCC 204304 after 24 hrs by microbroth dilution method", "format": "functional", "details": "ATCC 204304, 24 h"}, "[2]": {"system": "Candida", "experiment": "Antimicrobial activity against Candida mycoderma ATCC 9888 after 24 hrs by microbroth dilution method", "format": "functional", "details": "ATCC 9888, 24 h"}, "[3]": {"system": "Escherichia coli", "experiment": "Antimicrobial activity against Escherichia coli JM109 after 24 hrs by microbroth dilution method", "format": "functional", "details": "JM109, 24 h"}, "[4]": {"system": "Staphylococcus aureus", "experiment": "Antimicrobial activity against Staphylococcus aureus ATCC 25923 after 24 hrs by microbroth dilution method", "format": "functional", "details": "ATCC 25923, 24 h"}, "[5]": {"system": "Salmonella typhi", "experiment": "Antimicrobial activity against Bacillus typhi after 24 hrs by microbroth dilution method", "format": "functional, Salmonella enterica subsp. enterica serovar Typhi", "details": "Salmonella enterica"}, "[6]": {"system": "Micrococcus luteus", "experiment": "Antimicrobial activity against Micrococcus luteus ATCC 4698 after 24 hrs by microbroth dilution method", "format": "functional", "details": "ATCC 4698, 24 h"}, "[7]": {"system": "Candida albicans", "experiment": "Antimicrobial activity against Candida albicans ATCC 10231 after 24 hrs by microbroth dilution method", "format": "functional", "details": "ATCC 10231, 24 h"}, "[8]": {"system": "Bacillus", "experiment": "Potency index, ratio of norfloxacin MIC to compound MIC for antimicrobial activity against Bacillus proteus ATCC 13315", "format": "functional"}, "[9]": {"system": "Escherichia coli", "experiment": "Antimicrobial activity against Escherichia coli DH52 after 24 hrs by microbroth dilution method", "format": "functional", "details": "DH52, 24 h"}, "[10]": {"system": "Bacillus spizizenii", "experiment": "Antimicrobial activity against Bacillus subtilis ATCC 6633 after 24 hrs by microbroth dilution method", "format": "functional", "details": "ATCC 6633, 24 h"}, "[11]": {"system": "Staphylococcus aureus", "experiment": "Antimicrobial activity against methicillin-resistant Staphylococcus aureus N315 after 24 hrs by microbroth dilution method", "format": "functional", "details": "N315, 24 h"}, "[12]": {"experiment": "Antimicrobial activity against Bacillus proteus ATCC 13315 after 24 hrs by microbroth dilution method", "format": "functional", "details": "ATCC 13315, 24 h"}, "[13]": {"system": "Saccharomyces cerevisiae", "experiment": "Antimicrobial activity against Saccharomyces cerevisiae after 24 hrs by microbroth dilution method", "format": "functional"}}}
{"compound": "O=c1[nH]c(=O)n(Cc2nc3ccccc3n2Cc2cccc(F)c2)cc1F", "values": [{"measurement": "MIC", "setting": "[1]", "value": 32, "unit": "µg/mL"}, {"measurement": "MIC", "setting": "[2]", "value": 16, "unit": "µg/mL"}, {"measurement": "MIC", "setting": "[3]", "value": 64, "unit": "µg/mL"}, {"measurement": "MIC", "setting": "[4]", "value": 4, "unit": "µg/mL"}, {"measurement": "MIC", "setting": "[5]", "value": 128, "unit": "µg/mL"}, {"measurement": "MIC", "setting": "[6]", "value": 16, "unit": "µg/mL"}, {"measurement": "MIC", "setting": "[7]", "value": 16, "unit": "µg/mL"}, {"measurement": "Ratio", "setting": "[8]", "value": 4}, {"measurement": "MIC", "setting": "[9]", "value": 2, "unit": "µg/mL"}, {"measurement": "MIC", "setting": "[10]", "value": 8, "unit": "µg/mL"}, {"measurement": "MIC", "setting": "[11]", "value": 64, "unit": "µg/mL"}, {"measurement": "MIC", "setting": "[12]", "value": 2, "unit": "µg/mL"}, {"measurement": "MIC", "setting": "[13]", "value": 4, "unit": "µg/mL"}]}
